Experimental data taken from patent publication US20110091931A1, “Methods and Kits for Determining Oxygen Free Radical (OFR) Levels in Animal and Human Tissues as a Prognostic Marker for Cancer and Other Pathophysiologies” (COLBY PHARMACEUTICAL COMPANY, priority 2009, published 2011).
Entries after “also recorded” stand apart in the source; their conditions may differ.

What was measured:
[1] = test system: cytochrome P450 (CYP) class of enzymes; conditions: compared with I3C; cited from earlier work
[2] = test system: prostate cancer cells; conditions: cited from earlier work
[3] = biological target: T1, androgen receptor (Homo sapiens, UniProt P10275, T878A); conditions: human LNCaP prostate cancer cells; cited from earlier work
T1 construct: androgen receptor in human LNCaP prostate cancer cells in laboratory studies; host or cells: LNCaP
T1 sequence (P10275 1-920 T878A): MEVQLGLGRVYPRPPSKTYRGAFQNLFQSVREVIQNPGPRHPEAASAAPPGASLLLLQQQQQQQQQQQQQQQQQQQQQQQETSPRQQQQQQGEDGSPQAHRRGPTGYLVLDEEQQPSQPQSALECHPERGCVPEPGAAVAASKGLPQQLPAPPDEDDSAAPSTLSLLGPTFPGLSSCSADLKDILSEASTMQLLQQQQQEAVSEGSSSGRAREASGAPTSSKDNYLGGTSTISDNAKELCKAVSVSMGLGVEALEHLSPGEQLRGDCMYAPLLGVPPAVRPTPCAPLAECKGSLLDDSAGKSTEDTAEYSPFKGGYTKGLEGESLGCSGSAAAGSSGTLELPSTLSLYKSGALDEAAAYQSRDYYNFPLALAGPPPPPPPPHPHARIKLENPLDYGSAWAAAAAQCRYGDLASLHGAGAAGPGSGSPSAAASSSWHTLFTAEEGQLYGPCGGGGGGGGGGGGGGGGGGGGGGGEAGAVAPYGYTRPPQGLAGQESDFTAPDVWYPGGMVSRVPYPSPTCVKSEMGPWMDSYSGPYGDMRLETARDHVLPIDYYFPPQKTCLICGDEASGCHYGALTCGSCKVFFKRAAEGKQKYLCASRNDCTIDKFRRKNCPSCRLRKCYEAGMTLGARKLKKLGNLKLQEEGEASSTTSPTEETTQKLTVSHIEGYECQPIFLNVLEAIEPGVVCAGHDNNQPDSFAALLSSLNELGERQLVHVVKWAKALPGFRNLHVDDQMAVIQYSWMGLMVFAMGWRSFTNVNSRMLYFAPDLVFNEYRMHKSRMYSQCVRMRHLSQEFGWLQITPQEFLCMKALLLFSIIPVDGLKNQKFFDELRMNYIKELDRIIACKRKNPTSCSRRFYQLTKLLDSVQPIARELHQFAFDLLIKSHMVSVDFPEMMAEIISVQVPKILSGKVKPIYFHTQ

[4] = test system: prostate tissue in TRAMPxFVB animals; assay: In vivo hydroethidine (HEt) dye oxidation in prostate tissue; set-up: species or system mouse
Text: In parallel to standardizing and validating quantitation of cellular fluorescence intensities with the Bioimager system, we also standardized conditions for fluorescence dye oxidation in animal tissues in vivo and in human tissue ex vivo using standard fluorescence microscopy. For these studies, another dye hydroethidine (HEt) was used. HEt in reduced form is colorless. It is oxidized by the ROS superoxide to ethidium (E^+). The intense fluorescence of E^+ion can be monitored at 488 excitation/595 emission frequencies at sub-nanomolar concentrations. […] After sacrifice, animals were exsanguinated to reduce fluorescence interference from blood hemoglobin. […] Unlike what observed in DCF dye oxidation assay in LNCaP cells where nuclei are more fluorescent than are the cytoplasms (FIG. 5B), the HEt dye fluorescence in the cytoplasm of the normal prostatic lumen is more than that in the nuclei. […] This is ascertained when the fluorescence intensities of HEt dye in the human tumor and normal tissue ROS are quantitated, as described herein.
We standardized the in vivo method of Hydroethidine (HEt) dye oxidation. […] Prostate tissues in paraffin blocks were sectioned on a microtome, thin sections were de-paraffinized and observed under a fluorescence microscope at 480 nm excitation and 600 nm emission wavelengths. […]

[5] = test system: LNCaP cells; assay: HPLC quantitation of polyamine and acetyl polyamine levels in LNCaP cells; assay type: cell-based, human
Text: This method is routinely used in the analytical laboratory of the core facility of Cancer Centers and was accessible for quantitative assays necessary for the PK/PD determinations. […] Each data point was an average of two determinations where sample cell pellets were collected from three independent experiments.

[6] = test system: LNCaP cells; assay: DCF dye oxidation assay of androgen (R1881) induced ROS production; assay type: cell-based, human
Procedure: SSAT induction is a major source of androgen induced oxidative stress. In order to confirm that SSAT was the major source of androgen induced oxidative stress, we developed and used a stable LNCaP cell clone transfected with plasmid transcribing siRNA designed to silence SSAT mRNA expression. The SSAT mRNA level in these cells was determined by qRT-PCR method. In the cells transfected only with the vector, the SSAT mRNA level increased by over 8-fold after 96 h treatment with R1881, whereas in cells stably transfected with SSAT siRNA (si22), R1881 under similar treatment condition induced less than 2-fold increase in the SSAT transcript, showing over 75% silencing of SSAT mRNA expression. The ROS production induced by androgen analog R1881 in these cells was measured by DCF dye oxidation assay. The green fluorescence of oxidized DCF in androgen treated LNCaP cells was shown. The effect of SSAT silencing on the R1881 induced ROS production measured by DCF assay was also shown. The ratio of DCF fluorescence (green):DNA fluorescence (blue) for each of the treated well of a 96 well plate normalized to that of the average of control untreated wells represents the ROS level per cell relative to that in control untreated cells. The data points are the mean of numbers obtained from repeat experiments using thirty identically treated wells.
Each data point was an average of readings from six wells repeated twice in triplicates. […] The ROS levels of all CPC-200 pretreated cells were normalized to the ROS levels of cells treated with CPC-200 alone.

[7] = test system: TRAMP tumors; assay: Chemopreventive efficacy against TRAMP tumors (tumor development, survival, PET-CT); assay type: in vivo, mouse
Procedure: Mice are treated with the optimal dose regimen and A cohort of 10 mice from each treatment will be euthanized at 24 weeks of age, when primary tumors are evident in the control group and the tumors collected for pharmacology, necropsy and other toxicity and tumor burden analyses. […] The remaining 20 mice per condition were followed for survival. Body weights and tumor volumes were measured once weekly throughout the study. A cohort of 10 mice in this treatment group is also monitored over the course of drug treatment by PET-CT scan for tumor growth and metastases. Each mouse is injected with ^124I labeled NM-404 per standard protocol and imaged on the microPET-microCT scanner.

[8] = Observed adverse side effects of CPC-200 treatment in vivo
[9] = in vivo, iv

c1ccc2c(Cc3c[nH]c4ccccc34)c[nH]c2c1 [DIM, 3,3′-Diindolylmethane]
induction of cytochrome P450 (CYP) class of enzymes [1]: to a lesser extent than does I^3C
PSA [2]: downregulation of PSA
proliferation of prostate cancer cells ([2]; in vitro and in a mouse xenograft model): inhibition of proliferation
androgen receptor activation [3]: block androgen receptor activation
binding of dihydrotestosterone (DHT) to the androgen receptor [3]: decreased binding

N,N′-bis(butadienyl)-1,4-butanediamine [CPC-200]
oxidative stress in prostate tissue / pre-neoplastic lesions in vivo ([4]; TRAMP model, summary statement): significantly reduces oxidative stress; also recorded: unambiguous reduction in oxidative stress
HEt reporter dye monitored oxidation in prostatic tissue ([4]; TRAMPxFVB mice, six administrations of 25 mg/kg CPC-200 i.p. once every two weeks, HEt 8 mg/kg i.v.): no significant HEt reporter dye monitored oxidation is detected
R1881 induced increase in putrescine and spermidine ([5]; 24 h CPC-200 pretreatment of R1881-treated cells): almost completely blocked
effect on most cellular polyamine levels ([5]; CPC-200 treatment alone): little or no significant effect
R1881 (≧1 nM) induced ROS production ([6]; LNCaP cells, 24 h pretreatment with 25 μM CPC-200, R1881 96 h): effectively blocked
cellular ROS levels ([6]; LNCaP cells, CPC-200 treatment alone (25 μM)): minor decrease
androgen-induced oxidative stress in cultured androgen-dependent human prostate cancer cells ([6]; summary statement): significantly reduces oxidative stress; also recorded: almost completely blocked
overall survival ([7]; TRAMP mice): greatly increases; also recorded: markedly increased
time to spontaneous prostate tumor development ([7]; TRAMP model): markedly delays; also recorded: greatly delayed
prostate tumor by PET-CT scan ([7]; TRxF male mice, scans at age 8, 12, 18 and 24 weeks): no prostate tumor
adverse side effects [8]: without any observable adverse side effects

CCN1c2cc(N)ccc2-c2ccc(N)cc2C1c1ccccc1 (centres unmarked) [HEt, hydroethidine]
safety of i.v. injection [9]: can be safely injected i.v.
